The source of these data is patent publication US20240294508A1, “RIP1 MODULATORS INCLUDING AZETIDINE CYCLIC UREAS, PREPARATIONS, AND USES THEREOF” (SIRONAX LTD., priority 2021, published 2024).

For the assay, the system named is HT-29 cells. Put plainly: HT29 cells 0FBS assay in vitro: TNF-α/SMAC mimetic/zVAD-FMK induced necroptosis, CellTiter-Glo cell viability (RIP1 inhibitory activity). In kind it is cell-based. Conditions: Homo sapiens, FBS free medium, TNF-α (10 ng/ml) + SMAC mimetic (6 uM) + zVAD-FMK (10 μM), 20 hours, geometric mean EC50. The method, boiled down: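 Luminescent ATP read-out (CellTiter-Glo) gave viability of HT-29 cells after 20 h at 37° C in serum-free medium containing compound and a necroptosis cocktail of 10 ng/ml TNF-α, 6 uM SMAC mimetic and 10 μM zVAD-FMK. EC50s are geometric means of 10-point curves run in duplicate.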
As for `Cc1c(C(N)=O)nn(C)c1-c1ccc(F)c(OC2CN(C(=O)N3N=CC[C@H]3c3cc(F)cc(C#N)c3)C2)n1` [Compound 59, (S)-5-(6-((1-(5-(3-cyano-5-fluorophenyl)-4,5-dihydro-1H-pyrazole-1-carbonyl)azetidin-3-yl)oxy)-5-fluoropyridin-2-yl)-1,4-dimethyl-1H-pyrazole-3-carboxamide], the EC50 fell in the range of 0.1 to 100 nM.

Consider `Cc1cnn(C)c1-c1ccc(F)c(OC2CN(C(=O)N3N=CC[C@H]3c3cc(F)cc(C#N)c3)C2)c1` [Compound 60, (S)-3-(1-(3-(5-(1,4-dimethyl-1H-pyrazol-5-yl)-2-fluorophenoxy)azetidine-1-carbonyl)-4,5-dihydro-1H-pyrazol-5-yl)-5-fluorobenzonitrile], for which the EC50 lay in the range of 0.1 to 100 nM.

`Cc1c(N)nn(C)c1-c1cc(OC2CN(C(=O)N3N=CC[C@H]3c3cncc(F)c3)C2)c(F)cn1` [Compound 61, (S)-(3-((2-(3-amino-1,4-dimethyl-1H-pyrazol-5-yl)-5-fluoropyridin-4-yl)oxy)azetidin-1-yl)(5-(5-fluoropyridin-3-yl)-4,5-dihydro-1H-pyrazol-1-yl)methanone]: the half-maximal effective concentration (EC50) was in the range of 0.1 to 100 nM.

Consider `Cc1c(N)nn(C)c1-c1cc(OC2CN(C(=O)N3N=CC[C@H]3c3cncc(C#N)c3)C2)c(F)cn1` [Compound 62, (S)-5-(1-(3-((2-(3-amino-1,4-dimethyl-1H-pyrazol-5-yl)-5-fluoropyridin-4-yl)oxy)azetidine-1-carbonyl)-4,5-dihydro-1H-pyrazol-5-yl)nicotinonitrile], for which the EC50 was in the range of 0.1 to 100 nM.

As to `Cc1nn(-c2cc(OC3CN(C(=O)N4N=CC[C@H]4c4cncc(F)c4)C3)c(F)cn2)c(C)c1C(N)=O` [Compound 63, (S)-1-(5-fluoro-4-((1-(5-(5-fluoropyridin-3-yl)-4,5-dihydro-1H-pyrazole-1-carbonyl)azetidin-3-yl)oxy)pyridin-2-yl)-3,5-dimethyl-1H-pyrazole-4-carboxamide], the EC50 fell in the range of 100 to 1000 nM.

For the molecule `Cc1ncsc1-c1cc(OC2CN(C(=O)N3N=CC[C@H]3c3cncc(F)c3)C2)c(F)cn1` [Compound 64, (S)-(3-((5-fluoro-2-(4-methylthiazol-5-yl)pyridin-4-yl)oxy)azetidin-1-yl)(5-(5-fluoropyridin-3-yl)-4,5-dihydro-1H-pyrazol-1-yl)methanone], the EC50 was in the range of 0.1 to 100 nM.

Regarding `Cc1c(C#N)nn(C)c1-c1cc(OC2CN(C(=O)N3N=CC[C@H]3c3cncc(F)c3)C2)c(F)cn1` [Compound 65, (S)-5-(5-fluoro-4-((1-(5-(5-fluoropyridin-3-yl)-4,5-dihydro-1H-pyrazole-1-carbonyl)azetidin-3-yl)oxy)pyridin-2-yl)-1,4-dimethyl-1H-pyrazole-3-carbonitrile], the concentration for a half-maximal effect (EC50) is 0.1 to 100 nM.

On to `Cc1c(N)nn(C)c1-c1ccc(F)c(OC2CN(C(=O)N3N=CC[C@H]3c3cncc(F)c3)C2)n1` [Compound 67, (S)-(3-((6-(3-amino-1,4-dimethyl-1H-pyrazol-5-yl)-3-fluoropyridin-2-yl)oxy)azetidin-1-yl)(5-(5-fluoropyridin-3-yl)-4,5-dihydro-1H-pyrazol-1-yl)methanone], for which the EC50 was in the range of 0.1 to 100 nM.

On to `Cc1nc(C#N)c(C)n1-c1cc(OC2CN(C(=O)N3N=CC[C@H]3c3cncc(F)c3)C2)c(F)cn1` [Compound 68, (S)-1-(5-fluoro-4-((1-(5-(5-fluoropyridin-3-yl)-4,5-dihydro-1H-pyrazole-1-carbonyl)azetidin-3-yl)oxy)pyridin-2-yl)-2,5-dimethyl-1H-imidazole-4-carbonitrile], for which the EC50 was 100 to 1000 nM.

Regarding `Cc1nc(C(N)=O)c(C)n1-c1cc(OC2CN(C(=O)N3N=CC[C@H]3c3cncc(F)c3)C2)c(F)cn1` [Compound 69, (S)-1-(5-fluoro-4-((1-(5-(5-fluoropyridin-3-yl)-4,5-dihydro-1H-pyrazole-1-carbonyl)azetidin-3-yl)oxy)pyridin-2-yl)-2,5-dimethyl-1H-imidazole-4-carboxamide], the 50% effective concentration (EC50) lay within 100 to 1000 nM.

Regarding `Cc1nn(-c2cc(OC3CN(C(=O)N4N=CC[C@H]4c4cc(F)cc(C#N)c4)C3)c(F)cn2)c(C)c1C(N)=O` [Compound 70, (S)-1-(4-((1-(5-(3-cyano-5-fluorophenyl)-4,5-dihydro-1H-pyrazole-1-carbonyl)azetidin-3-yl)oxy)-5-fluoropyridin-2-yl)-3,5-dimethyl-1H-pyrazole-4-carboxamide], the EC50 was 0.1 to 100 nM.

On to `Cc1nn(-c2cc(OC3CN(C(=O)N4N=CC[C@H]4c4ccccc4)C3)c(F)cn2)c(C)c1C(N)=O` [Compound 71, (S)-1-(5-fluoro-4-((1-(5-phenyl-4,5-dihydro-1H-pyrazole-1-carbonyl)azetidin-3-yl)oxy)pyridin-2-yl)-3,5-dimethyl-1H-pyrazole-4-carboxamide], for which the EC50 lay in the range of 0.1 to 100 nM.

`Cc1nn(-c2cc(OC3CN(C(=O)N4N=CC[C@H]4c4cccc(F)c4)C3)c(F)cn2)c(C)c1C(N)=O` [Compound 73, (S)-1-(5-fluoro-4-((1-(5-(3-fluorophenyl)-4,5-dihydro-1H-pyrazole-1-carbonyl)azetidin-3-yl)oxy)pyridin-2-yl)-3,5-dimethyl-1H-pyrazole-4-carb oxamide]: the EC50 was 0.1 to 100 nM.

Regarding `Cc1nn(-c2cc(OC3CN(C(=O)N4N=CC[C@H]4c4ccccc4)C3)c(F)cn2)c(C)c1C(=O)NCCO` [Compound 74, (S)-1-(5-fluoro-4-((1-(5-phenyl-4,5-dihydro-1H-pyrazole-1-carbonyl)azetidin-3-yl)oxy)pyridin-2-yl)-N-(2-hydroxyethyl)-3,5-dimethyl-1H-pyrazole-4-carboxamide], the EC50 was in the range of 0.1 to 100 nM.

On to `Cc1nn(-c2cc(OC3CN(C(=O)N4N=CC[C@H]4c4cccc(F)c4)C3)c(F)cn2)c(C)c1C(=O)NCCO` [Compound 75, (S)-1-(5-fluoro-4-((1-(5-(3-fluorophenyl)-4,5-dihydro-1H-pyrazole-1-carbonyl)azetidin-3-yl)oxy)pyridin-2-yl)-N-(2-hydroxyethyl)-3,5-dimethyl-1H-pyrazole-4-carboxamide], for which the concentration for a half-maximal effect (EC50) was in the range of 0.1 to 100 nM.

On to `Cc1nn(-c2cc(OC3CN(C(=O)N4N=CC[C@H]4c4ccccc4)C3)c(F)cn2)c(C)c1C(=O)NC1COC1` [Compound 76, (S)-1-(5-fluoro-4-((1-(5-phenyl-4,5-dihydro-1H-pyrazole-1-carbonyl)azetidin-3-yl)oxy)pyridin-2-yl)-3,5-dimethyl-N-(oxetan-3-yl)-1H-pyrazole-4-carboxamide], for which the EC50 fell in the range of 0.1 to 100 nM.

With `Cc1nn(-c2cc(OC3CN(C(=O)N4N=CC[C@H]4c4cccc(F)c4)C3)c(F)cn2)c(C)c1C(=O)NC1COC1` [Compound 77, (S)-1-(5-fluoro-4-((1-(5-(3-fluorophenyl)-4,5-dihydro-1H-pyrazole-1-carbonyl)azetidin-3-yl)oxy)pyridin-2-yl)-3,5-dimethyl-N-(oxetan-3-yl)-1H-pyrazole-4-carboxamide], the EC50 fell in the range of 0.1 to 100 nM.

Regarding `CNC(=O)c1c(C)nn(-c2cc(OC3CN(C(=O)N4N=CC[C@H]4c4ccccc4)C3)c(F)cn2)c1C` [Compound 78], the EC50 fell in the range of 0.1 to 100 nM.

For the molecule `CNC(=O)c1c(C)nn(-c2cc(OC3CN(C(=O)N4N=CC[C@H]4c4cccc(F)c4)C3)c(F)cn2)c1C` [Compound 79, (S)-1-(5-fluoro-4-((1-(5-(3-fluorophenyl)-4,5-dihydro-1H-pyrazole-1-carbonyl)azetidin-3-yl)oxy)pyridin-2-yl)-N,3,5-trimethyl-1H-pyrazole-4-carboxamide], the EC50 lay in the range of 0.1 to 100 nM.

Take `CNC(=O)c1c(C)nn(-c2cc(OC3CN(C(=O)N4N=CC[C@H]4c4cc(F)cc(C#N)c4)C3)c(F)cn2)c1C` [Compound 80, (S)-1-(4-((1-(5-(3-cyano-5-fluorophenyl)-4,5-dihydro-1H-pyrazole-1-carbonyl)azetidin-3-yl)oxy)-5-fluoropyridin-2-yl)-N,3,5-trimethyl-1H-pyrazole-4-carboxamide]: the EC50 is 0.1 to 100 nM.

In the case of `CNC(=O)c1c(C)nn(-c2cc(OC3CN(C(=O)N4N=CC[C@H]4c4cncc(C#N)c4)C3)c(F)cn2)c1C` [Compound 81, (S)-1-(4-((1-(5-(5-cyanopyridin-3-yl)-4,5-dihydro-1H-pyrazole-1-carbonyl)azetidin-3-yl)oxy)-5-fluoropyridin-2-yl)-N,3,5-trimethyl-1H-pyrazole-4-carboxamide], the EC50 fell in the range of 100 to 1000 nM.

With `Cc1nn(-c2cc(OC3CN(C(=O)N4N=CC[C@H]4c4cccc(F)c4)C3)c(F)cn2)c(C)c1C(=O)O` [Compound 82, (S)-1-(5-fluoro-4-((1-(5-(3-fluorophenyl)-4,5-dihydro-1H-pyrazole-1-carbonyl)azetidin-3-yl)oxy)pyridin-2-yl)-3,5-dimethyl-1H-pyrazole-4-carb oxylic acid], the EC50 fell in the range of 0.1 to 100 nM.

Regarding `Cc1nn(-c2cc(OC3CN(C(=O)N4N=CC[C@H]4c4cc(F)cc(C#N)c4)C3)c(F)cn2)c(C)c1C(=O)O` [Compound 83, (S)-1-(4-((1-(5-(3-cyano-5-fluorophenyl)-4,5-dihydro-1H-pyrazole-1-carbonyl)azetidin-3-yl)oxy)-5-fluoropyridin-2-yl)-3,5-dimethyl-1H-pyrazole-4-carboxylic acid], the half-maximal effective concentration (EC50) lay in the range of 0.1 to 100 nM.

As to `Cc1nn(-c2cc(OC3CN(C(=O)N4N=CC[C@H]4c4ccccc4)C3)c(F)cn2)c(C)c1C(=O)O` [Compound 84, (S)-1-(5-fluoro-4-((1-(5-phenyl-4,5-dihydro-1H-pyrazole-1-carbonyl)azetidin-3-yl)oxy)pyridin-2-yl)-3,5-dimethyl-1H-pyrazole-4-carboxylic acid], the EC50 was in the range of 0.1 to 100 nM.

Consider `Cc1nn(-c2cc(OC3CN(C(=O)N4N=CC[C@H]4c4cc(F)cc(C#N)c4)C3)c(F)cn2)c(C)c1C(=O)NC1COC1` [Compound 85, (S)-1-(4-((1-(5-(3-cyano-5-fluorophenyl)-4,5-dihydro-1H-pyrazole-1-carbonyl)azetidin-3-yl)oxy)-5-fluoropyridin-2-yl)-3,5-dimethyl-N-(oxetan-3-yl)-1H-pyrazole-4-carboxamide], for which the half-maximal effective concentration (EC50) is 0.1 to 100 nM.
